The target in data set [1] is T1, cathepsin B (Mus musculus, UniProt P10605).
T1 construct: Cathepsin B activity in the cell medium; endogenous in cells; host or cells: Hepa-1c1c7 (CRL-2026)
In words: Inhibition of cathepsin B activity, TKPTS cells. Format: cell-based. The note with it: TKPTS non-tumour cells. How it is done: (§1) For the determination of the cathepsin B’s inhibition activity, its superficial expression in two tumour cell lines (ACHN and Hepa-1c1c7 cells) and two non-tumour cell lines (TKPTS and FL83B cells) was evaluated by flow cytometry.
(§2) Cathepsin B activity in the cell medium was evaluated by using a fluorogenic substrate: Abz-Gly-Ile-Val-Arg~Ala-Lys(Dnp)-OH. This peptide substrate was purchased from Bachem AG (Bubendorf, Switzerland). The reactions were performed at 40 °C for 10 min [38]. Stock solutions of inhibitory compounds were prepared in DMSO (in a concentration of 10 mM). From these stock solutions, increasing concentrations of the inhibitory compounds (1 and 100 nM) were prepared. […] Fluorescence was measured with excitation/emission wavelength values of 320 and 420 nm, respectively, using the Cary Eclipse fluorescence spectrophotometer (Agilent Technologies, Melbourne, Australia).
(§3) All analyses were performed using version 9.0.0 of GraphPad Prism Software LLC from 1994–2020 (www.graphpad.com, accessed on 2 January 2023). Using non-linear regression, the values of 50% cytotoxic concentration (CC50) and 50% inhibitory concentration (IC50) were determined. In addition, a one-way ANOVA statistical analysis was performed to assess whether the differences between the values were statistically significant (p < 0.05; p < 0.001, Tukey’s multiple comparisons test). All experiments were performed in triplicate.

Data set [2] concerns the target T1, cathepsin B. In words: Inhibition of cathepsin B activity, FL83B cells. Format: cell-based. The note with it: FL83B non-tumour cells. How it is done: as §1, §2, §3
Data set [3] deals with T1, cathepsin B. The experiment in a line: Inhibition of cathepsin B activity, Hepa-1c1c7 cells. The note with it: Hepa-1c1c7 tumour cells. Format: cell-based. How it is done:
as §1, §2, §3

In data set [4] the test system is C57BL/6 mice. The experiment in a line: Acute toxicity in vivo. The note with it: 4 mg/kg i.p.; for Physical aspect and weight after the third day of treatment: mice, day 3. How it is done: Adult male C57BL/6 mice weighing 25–35 g were purchased from the Centre for Laboratory Animals of the Faculty of Medicine from the University Autónoma of Madrid (Spain) and maintained under controlled temperature conditions (22 ± 2 °C), with a constant 12 h light-dark cycle and with access to food and water ad libitum.
Five groups (five mice per group) were selected for this study.
All animals were kept under observation for 7 days, during which their physical aspect, behaviour, and the number of deaths were recorded daily. The negative control (normal saline solution) received only the same quantity of the vehicle (distilled water). These tests were carried out in triplicate. All the surviving animals were euthanised at the end of the study, and their vital organs were individually observed by necropsy and checked for overt pathology.

Data set [5] is described as follows: SRB viability assay, TKPTS cells. The note with it: mouse, TKPTS non-tumour cell line, hypoxic conditions (1% O2). Format: cell-based. The source says: (§4) Two tumour cell lines, ACHN (Human kidney carcinoma) and Hepa-1c1c7 (Human liver carcinoma), and two non-tumour cell lines, TKPTS (Mus musculus kidney normal) and FL83B (Mus musculus liver normal), were used in this study. The cell lines were purchased by the company VALORALIA I MÁS D, SL. From LGC Standards, which is the exclusive distributor of American Type Culture Collection (ATTC) products. […] Likewise, Hepa-1c1c7 (CRL-2026 BSL 1) is an epithelial cell line that was isolated from the liver of a patient with hepatoma. On the other hand, TKPTS (CRL-3361 BSL 2) is a normal cell line with epithelial-like morphology that was isolated in 1997 from the proximal tubule of a mouse kidney. Finally, FL83B (CRL-2390 BSL 1) is a hepatocyte cell that was isolated from the liver of a 15- to 17-day-old foetal mouse in 1969. The cells were maintained in a Dulbecco's modified eagle medium (DMEM, Sigma-Aldrich St. Louis, USA) supplemented with 2 mM L-glutamine (AppliChem, Denmark), 10% foetal bovine serum (FBS, Sigma-Aldrich, USA), 100 units/mL of penicillin and 100 µg/mL of streptomycin (Fisher Scientific, Pittsburgh, USA) in culture flasks, in an incubator with a humidified atmosphere containing 5% CO2, at 37 °C under hypoxic conditions (1% O2), managing to mimic the tumour microenvironment in vivo.
(§5) Cells (200 µL, 2 × 10^4 cells/well) were seeded in 96-well plates and were cultured for 12 h at 37 °C under hypoxic conditions (1% O2). Subsequently, the samples dissolved in dimethyl sulfoxide (DMSO ≥ 99.9% Sigma-Aldrich, CAS Number 67-68-5) were added at different concentrations for 72 h. Actinomycin D (ACT ≥ 95% Sigma-Aldrich, CAS Number 50-76-0) was used as a positive control. Cells were then fixed with 10% trichloroacetic acid (TCA ≥ 99.0% Sigma-Aldrich, CAS Number 76-03-9) for 1 h at 4 °C. After washing with distilled water, 100 μL of 0.4% sulforhodamine B (SRB Dye content 75 % Sigma-Aldrich, CAS Number 3520-42-1) in 1% acetic acid (AcOH ≥ 99.0% Sigma-Aldrich, CAS Number 64-19-7) were added to each well and incubated for 20 min. After washing them three times with 1% TCA, the plates were air-dried, and stained cells were dissolved with 100 μL/well of 10 mM unbuffered tris(hydroxymethyl)aminomethane (Tris Base ≥ 99.9% Sigma-Aldrich, CAS Number 77-86-1). The optical density of the microplates was measured at 540 nm, using an ELISA plate reader, SpectraMax® i3, Molecular Devices.
(§6) All analyses were performed using version 9.0.0 of GraphPad Prism Software LLC from 1994–2020 (www.graphpad.com, accessed on 2 January 2023). Using non-linear regression, the values of 50% cytotoxic concentration (CC50) and 50% inhibitory concentration (IC50) were determined. […]
On the technique in general: In SRB staining, fixed cells bind dye roughly in proportion to their protein.

Data set [6] is described as follows: SRB viability assay, FL83B cells. The class given is cell-based. The note with it: mouse, FL83B non-tumour cell line, hypoxic conditions (1% O2).
Excerpt: as §4, §5, §6

Data set [7] has as its system ACHN cells. In words: SRB viability assay, ACHN cells. The note with it: Homo sapiens, 72 h. Format: cell-based.
Excerpt: as §4, §5, §6

The test system of data set [8] is Hepa-1c1c7 cells. In words: SRB viability assay, Hepa-1c1c7 cells. Format: cell-based. The note with it: Mus musculus.
Excerpt: as §4, §5, §6

The target of data set [9] is T2, cathepsin B (Homo sapiens, UniProt P07858).
T2 construct: Cathepsin B activity in the cell medium; endogenous in cells; host or cells: ACHN (CRL-1611)
The experiment in a line: Inhibition of cathepsin B activity, ACHN cells. The class given is cell-based. The note with it: ACHN tumour cells. How it is done:
as §1, §2, §3

The mark [10] stands for this setting: TKPTS normal kidney proximal tubule cells.
[11] abbreviates: FL83B normal foetal liver hepatocyte cells.
Setting [12] is: ACHN tumour cell line, SRB, hypoxic conditions (1% O2), read-out: CC50.
[13] abbreviates: Hepa-1c1c7 tumour cell line, SRB, 72 h, hypoxic conditions (1% O2), read-out: CC50.

Entries after “also recorded” stand apart in the source; their conditions may differ. Like-named read-outs stand apart in the source and are kept apart here. Starred links: 1 amine or outer side, 2 acyl side, 3 side chain; linkers in the order of their positions; H or OH if unused. Positions of bridges follow the written chain, without caps; N, C: chain ends. Non-standard residues stand in square brackets, D forms with d. Residues, ends and D or L forms follow the SMILES beside them. Chains are numbered I, II in the order given. Actinocin(9to1) = Cc1c2oc3c(C)ccc(C(=O)[*:1])c3nc-2c(C(=O)[*:2])c(N)c1=O; NMeV = CN[C@H](C(=O)O)C(C)C; Sar = CNCC(=O)O

T1 sequence (P10605 80-339): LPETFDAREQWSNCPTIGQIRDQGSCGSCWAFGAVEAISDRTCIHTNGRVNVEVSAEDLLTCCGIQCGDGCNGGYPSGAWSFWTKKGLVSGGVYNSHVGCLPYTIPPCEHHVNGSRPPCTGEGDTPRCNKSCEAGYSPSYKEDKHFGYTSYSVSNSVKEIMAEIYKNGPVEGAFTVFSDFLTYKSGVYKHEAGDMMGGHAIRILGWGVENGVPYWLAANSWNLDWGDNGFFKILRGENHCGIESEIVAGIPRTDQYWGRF

On to `CCCNC(=O)[C@H]1O[C@@H]1C(=O)N[C@H](C(=O)N1CCC[C@H]1C(=O)O)[C@@H](C)CC` (relative stereo) [CA 074, reference compound], for which the inhibition constant (Ki) in data set [1] came to 2.39 ± 0.12 nM; in data set [2] it was 3.08 ± 0.19 nM; in data set [3], 5.99 ± 0.64 nM. Besides, the “Physical aspect and weight after the third day of treatment” value (“Physical aspect and weight” for short) in [4] is “active and showed no apparent weight loss”.

Regarding `Cc1c2oc3c(C)ccc(C(=O)N[C@@H]4C(=O)N[C@H](C(C)C)C(=O)N5CCC[C@H]5C(=O)N(C)CC(=O)N(C)[C@@H](C(C)C)C(=O)O[C@@H]4C)c3nc-2c(C(=O)N[C@@H]2C(=O)N[C@H](C(C)C)C(=O)N3CCC[C@H]3C(=O)N(C)CC(=O)N(C)[C@@H](C(C)C)C(=O)O[C@@H]2C)c(N)c1=O` [Actinomycin, Actinomycin D, reference compound] (I: T[dV]P[Sar][NMeV] / II: T[dV]P[Sar][NMeV]; ester I:1-I:C, II:1-II:C; linker I:N-II:N via Actinocin(9to1)), the values for the CC50 at 72 h in data set [5] and in [6] were 3 ± 0.5 nM and 6 ± 0.6 nM, respectively. Further, the CC50 came to 9 ± 0.6 nM in data set [7] (ACHN) and 14 ± 0.6 nM in data set [8] (Hepa-1c1c7, 72 h).

In the case of `CCCCCC1=NN(C(=O)CCO)O[C@H](CCCCC)C1` [Compound 1, 1-[(6R)-5,6-dihydro-4,6-dipentyl-2H-1,2,3-oxadiazin-2-yl]-3-hydroxypropan-1-one], the CC50 at 72 h in data set [5] (setting [10]) was 1100 ± 50 nM; in data set [6] (setting [11]), 2360 ± 100 nM. The CC50 turned out to be 760 ± 90 nM in data set [7] (setting [12]) and 1250 ± 60 nM in [8] (setting [13]). Further, the Ki in data set [1] amounted to 2.13 ± 0.04 nM; in data set [2] it was 2.61 ± 0.02 nM; in data set [9], 3.06 ± 0.13 nM; in [3] it was 3.37 ± 0.24 nM. Besides, in data set [4], the “Physical aspect and weight” value was “active and showed no apparent weight loss”.

In the case of `CCCCCC1=NN(C(=O)CCOC(C)=O)O[C@H](CCCCC)C1` [Compound 2, 3-[(6R)-5,6-dihydro-4,6-dipentyl-2H-1,2,3-oxadiazin-2-yl]-3-oxopropyl acetate], the figures for the CC50 at 72 h in data set [5] (setting [10]) and in [6] (setting [11]) were 1060 ± 40 nM and 1940 ± 80 nM, respectively. Moreover, the CC50 in data set [7] (setting [12]) came to 220 ± 30 nM; in [8] (setting [13]), 630 ± 50 nM. Also, the Ki in [1] was 0.49 ± 0.05 nM; in [2], 0.66 ± 0.09 nM; in [9], 5.67 ± 0.68 nM; in data set [3], 6.59 ± 0.65 nM. In [4], the “Physical aspect and weight” value was “weight loss and signs of disease (bowed backs, loss of hair shine, and slow movements)”.

On to `CCCCCC1=NN(C(=O)CCOC(=O)CCC(=O)O)O[C@H](CCCCC)C1` [Compound 3, 4-{3-[(6R)-5,6-Dihydro-4,6-dipentyl-2H-1,2,3-oxadiazin-2-yl]-3-oxopropoxy}-4-oxobutanoic acid], for which the CC50 at 72 h worked out at 1620 ± 60 nM in data set [5] (setting [10]) and 2800 ± 90 nM in data set [6] (setting [11]). Moreover, the CC50 in data set [7] (setting [12]) came to 730 ± 100 nM; in data set [8] (setting [13]), 910 ± 80 nM. Moreover, the Ki in data set [1] came to 3.29 ± 0.4 nM; in data set [2], 4.55 ± 0.81 nM; in [9], 1.52 ± 0.13 nM; in [3] it was 1.76 ± 0.24 nM. For the same compound, in [4], the “Physical aspect and weight” value was “active and showed no apparent weight loss”. Also, the In vivo toxicity entry in [4] (murine model, 4 mg/kg) was “no in vivo toxicity; also recorded: did not show toxicity in vivo”.

The term Ki denotes a measure of affinity in units of concentration, obtained from inhibition or displacement. A lower Ki goes with a stronger hold on the target. By CC50 is commonly meant the concentration giving 50% cytotoxicity.

Source of the values: publication PMC10221466, “Isolation of Nocuolin A and Synthesis of New Oxadiazine Derivatives. Design, Synthesis, Molecular Docking, Apoptotic Evaluation, and Cathepsin B Inhibition” (Marine Drugs, 2023).
